From patent US10179120B2, “Dosage regimen of ferric trimaltol” (Iron Therapeutics Holdings AG, priority 2014, dated 2019)

Experiments:
Format in all cases: in vivo, human
[1] = Example 1: 12-week placebo-controlled study of ST10 30 mg twice daily in IDA patients with IBD
Method: 128 patients suffering from IDA were randomised. Of this group […] were suffering from Crohn's disease and 53 were suffering from ulcerative colitis. All had mild to moderate disease activity and anaemia associated with IBD which was measured according to low haemoglobin levels ([…] for women and 13 g/dL (male) and were intolerant of ferrous iron, or it could not be used. There were no restrictions on the use of gastric pH modifying agents or medications.
60 patients were treated with ST10 at a 30 mg dose twice daily, before breakfast and prior to sleep on an empty stomach for a period of 12 weeks.
60 patients received a matched placebo capsule and were treated in the same way for the same period. Withdrawal from the study before 12 weeks occurred in seven ST10 subjects and nine placebo subjects. 87% of subjects completed 12 weeks of treatment.

[2] = Example 1: treatment with 30 mg ST10 twice daily for up to 64 weeks; conditions: 30 mg twice daily for up to 64 weeks, 109 subjects
Method: 109 of the 128 subjects were treated with 30 mg ST10 twice daily for up to 64 weeks.

[3] = Example 2: open-label, randomised, single and repeat dose Phase I pharmacokinetic study in subjects with iron deficiency; conditions: for reticulocyte haemoglobin, Mean change: baseline to day 8; for Transferrin saturation above baseline / mean serum total iron concentration above baseline: 6 h postdose
Method: These studies were primarily pharmacokinetic and conducted in subjects with iron deficiency having active inflammatory disease or acute chronic inflammation. An open-label, randomised, single and repeat dose parallel group Phase I pharmacokinetic study was carried out to evaluate the effect of single and repeated twice daily (bid) oral doses of ST10 at 30 mg, 60 mg and 90 mg for 8 days.
24 subjects with iron deficiency (with or without anaemia) were randomly allocated to one of the three ST10 dose groups as follows:
Group 1: 9 subjects received ST10, 30 mg twice daily for 7 days (days 1-7) plus a final 30 mg dose on the morning of day 8.
Group 2: 8 subjects received ST10, 60 mg twice daily for 7 days (days 1-7) plus a final 60 mg dose on the morning of day 8.
Group 3: 7 subjects received ST10, 90 mg twice daily for 7 days (days 1-7) plus a final 90 mg dose on the morning of day 8.
On day 1, following fasting for at least 1.5-2 hours beforehand, ST10 was administered (30 mg, 60 mg or 90 mg) and blood samples collected over the following 6 h for analysis. 60 mg was administered as two 30 mg capsules and 90 mg was administered as three 30 mg capsules, both as a single dose. Subjects continued dosing with ST10 on the evening of day 1 then every morning and evening for the next 6 days (Days 2 to 7).
On day 8 following fasting for at least 1.5-2 hours beforehand the last dosing of ST10 was administered (30 mg, 60 mg or 90 mg) and blood samples collected over the following 6 h for analysis.
On Days 1 and 8 blood samples were collected predose (0 h=time of ST10 dose) and at 5 minutes (for NTBI only), 15 minutes, 30 minutes, 45 minutes, and 1, 1.5, 2, 3, 4 and 6 h postdose.
Serum concentrations of transferrin, total iron binding capacity (TIBC), ferritin and soluble transferrin receptor; and reticulocyte haemoglobin concentrations (CHr) in whole blood were measured by central laboratories using appropriately validated methods.
These studies used transferrin saturation and total serum iron as measurements of iron uptake from the gut into the transport mechanisms. In addition serum ferritin was used as a measure of iron storage status at the end of the dosing period; all of these measurements are standard and well recognised.
One subject in the 60 mg dose group prematurely withdrew from the study on Day 7, so full profiles of all serum iron parameters were available in the 30 mg dose group for 9 subjects (days 1 and 8), in the 60 mg dose group 8 subjects on day 1 and for 7 subjects on day 8, and in the 90 mg dose group for 7 subjects (days 1 and 8).

ferric trimaltol [ST10]
improvement of haemoglobin levels ([1]; 30 mg twice daily, 8 weeks, p<0.0001): 1.75 g/dL | subjects with adverse events (mainly gastrointestinal) ([1]; 30 mg twice daily, 12 weeks): 38% | subjects with normalised haemoglobin levels ([1]; 30 mg twice daily, by week 12): More than 65% | tolerability ([1]; 30 mg twice daily, duration of the treatment): well tolerated | Mean Hb increase from baseline to Week 12 ([1]; 30 mg twice daily, empty stomach, 12 weeks): 2.26 g/dL | improvement of haemoglobin levels ([1]; 30 mg twice daily, week 4, p<0.0001): 1.05 g/dL | mean Hb at Week 12 ([1]; 30 mg twice daily, week 12): 13.20 g/dL | mean improvement in Hb, change from baseline compared to placebo ([1]; 30 mg twice daily, week 12, p<0.0001): 2.25 g/dL | mean Hb at baseline ([1]; ST10-treated subjects, baseline): 11.10 g/dL | blackened stools ([1]; patients in the study of Example 1): did not report blackened stools | subjects with adverse reactions [2]: 23% | reticulocyte haemoglobin, Baseline ([3]; 30 mg bid): 33.6 | reticulocyte haemoglobin, Mean change ([3]; 30 mg bid): 0.9 | reticulocyte haemoglobin, Day 8 ([3]; 30 mg bid): 34.6 | reticulocyte haemoglobin, Baseline ([3]; 60 mg bid): 31.0 | reticulocyte haemoglobin, Mean change ([3]; 60 mg bid): 3.3 | reticulocyte haemoglobin, Day 8 ([3]; 60 mg bid): 34.1 | reticulocyte haemoglobin, Baseline ([3]; 90 mg bid): 30.8 | reticulocyte haemoglobin, Mean change ([3]; 90 mg bid): 3.0 | reticulocyte haemoglobin, Day 8 ([3]; 90 mg bid): 33.9 | Transferrin saturation above baseline ([3]; Day 1, 30 mg dose group): 17.0% | mean serum total iron concentration above baseline ([3]; Day 1, 30 mg dose group): 11.8 µmol/L | Transferrin saturation above baseline ([3]; Day 1, 60 mg dose group): 47.3% | mean serum total iron concentration above baseline ([3]; Day 1, 60 mg dose group): 33.0 µmol/L | Transferrin saturation above baseline ([3]; Day 1, 90 mg dose group): 33.3% | mean serum total iron concentration above baseline ([3]; Day 1, 90 mg dose group): 24.3 µmol/L | Transferrin saturation, average maximum value ([3]; Day 1, 30 mg dose group): 45.6% | serum total iron concentration, average maximum ([3]; Day 1, 30 mg dose group): 32.3 µmol/L | Transferrin saturation, average maximum value ([3]; Day 1, 60 mg dose group): 69.8% | serum total iron concentration, average maximum ([3]; Day 1, 60 mg dose group): 49.1 µmol/L | Transferrin saturation, average maximum value ([3]; Day 1, 90 mg dose group): 67.3% | serum total iron concentration, average maximum ([3]; Day 1, 90 mg dose group): 48.7 µmol/L | Mean serum ferritin ([3]; day 1, 30 mg dose group): around 15 μg/L | Mean serum ferritin ([3]; day 1, 60 mg dose group): ~10 µg/L | Mean serum ferritin ([3]; day 1, 90 mg dose group): ~13 µg/L | Mean serum ferritin ([3]; day 8, 30 mg dose group): ~22 µg/L | Mean serum ferritin ([3]; day 8, 60 mg dose group): ~22 µg/L | Mean serum ferritin ([3]; day 8, 90 mg dose group): ~32 µg/L | tolerability ([3]; doses of 30 mg and above): well tolerated
